Starred links: 1 amine or outer side, 2 acyl side, 3 side chain; linkers in the order of their positions; H or OH if unused. Non-standard residues stand in square brackets, D forms with d. Residues, ends and D or L forms follow the SMILES beside them. Groups on a side chain read outwards from the residue. *: point of attachment. C18 diacid = O=C(O)CCCCCCCCCCCCCCCCC(=O)*; PEG8 = NCCOCCOCCOCCOCCOCCOCCOCCOCCC(=O)O; Dip = N[C@H](C(=O)O)C(c1ccccc1)c1ccccc1; γGlu = O=C(O)[C@H](CCC(=O)[*:2])N[*:1]; Stearoyl = CCCCCCCCCCCCCCCCCC(=O)*; αMeF = C[C@](N)(Cc1ccccc1)C(=O)O; PEG4 = NCCOCCOCCOCCOCCC(=O)O; PEG2 = NCCOCCOCCC(=O)O; AEEA = NCCOCCOCC(=O)O; Aib = CC(C)(N)C(=O)O
Assays:
[1] = molecular target: human GLP-1 receptor (hGLP-1R) (Homo sapiens, UniProt P43220); experiment: cAMP production (HTRF) in CHO cells expressing hGLP-1R; format: cell-based; parameters: expressed in transfected cells; settings: for EC50: Table 6, peptides modified at position 17, cAMP in CHO hGLP-1R cells, geometric mean, read-out: hGLP-1R EC50; for % Relative Potency Ratio: Table 6, % GLP-1R activity relative to GLP-1 / % GlucR activity relative to glucagon
In short: (§1)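 Potency values represent EC50 from 4-parameter logistic curves of HTRF % Delta F signal. Receptor-expressing CHO cells (hGCGR 2×10^5 cells/mL, hGLP-1R 1×10^5 cells/mL) were exposed for 30 min at room temperature before two-step cAMP detection.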

[2] = molecular target: human glucagon receptor (hGCGR) (Homo sapiens, UniProt P47871); experiment: cAMP production (HTRF) in CHO cells expressing hGCGR; format: cell-based; parameters: expressed in transfected cells; settings: Table 6, peptides modified at position 17; cAMP in CHO hGCGR cells; geometric mean; read-out: hGluc-R EC50
In short: as §1

Chain of human glucagon receptor (hGCGR) (P47871 26-477): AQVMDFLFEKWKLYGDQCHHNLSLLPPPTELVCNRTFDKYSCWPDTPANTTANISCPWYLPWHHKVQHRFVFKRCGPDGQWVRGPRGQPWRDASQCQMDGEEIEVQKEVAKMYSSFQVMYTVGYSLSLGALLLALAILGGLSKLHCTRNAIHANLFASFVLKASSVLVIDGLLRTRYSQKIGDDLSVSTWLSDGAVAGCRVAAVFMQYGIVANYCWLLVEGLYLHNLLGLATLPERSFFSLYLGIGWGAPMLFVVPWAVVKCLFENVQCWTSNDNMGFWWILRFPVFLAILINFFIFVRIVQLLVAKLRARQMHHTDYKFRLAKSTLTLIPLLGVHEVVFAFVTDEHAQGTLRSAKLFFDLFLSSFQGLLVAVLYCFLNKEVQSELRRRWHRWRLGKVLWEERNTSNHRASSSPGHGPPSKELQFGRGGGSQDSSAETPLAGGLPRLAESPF
Chain of human GLP-1 receptor (hGLP-1R) (P43220 24-463): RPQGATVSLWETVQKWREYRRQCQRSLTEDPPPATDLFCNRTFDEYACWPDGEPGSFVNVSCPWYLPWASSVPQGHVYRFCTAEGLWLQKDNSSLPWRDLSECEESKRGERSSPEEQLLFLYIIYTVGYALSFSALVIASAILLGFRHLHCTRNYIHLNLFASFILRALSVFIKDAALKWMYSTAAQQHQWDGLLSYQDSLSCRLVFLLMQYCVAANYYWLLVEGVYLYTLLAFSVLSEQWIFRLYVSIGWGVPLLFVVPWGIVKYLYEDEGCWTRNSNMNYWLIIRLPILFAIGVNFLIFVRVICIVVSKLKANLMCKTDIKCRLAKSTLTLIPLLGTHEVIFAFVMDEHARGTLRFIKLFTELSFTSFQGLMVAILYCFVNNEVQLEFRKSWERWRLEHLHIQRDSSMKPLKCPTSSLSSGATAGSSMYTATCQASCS

| Structure (SMILES) | EC50 [1] [pM] | % Relative Potency Ratio [1] | EC50 [2] [pM] |
| --- | --- | --- | --- |
| CC(C)C[C@H](NC(=O)[C@H](Cc1c[nH]c2ccccc12)NC(=O)[C@H](CCC(N)=O)NC(=O)[C@@H](NC(=O)[C@H](Cc1ccccc1)NC(=O)[C@H](CC(=O)O)NC(=O)[C@H](CCC(N)=O)NC(=O)[C@H](C)NC(=O)[C@H](CCCNC(=N)N)NC(=O)[C@H](CCCCNC(=O)COCCOCCNC(=O)COCCOCCNC(=O)CC[C@H](NC(=O)CCCCCCCCCCCCCCCCC(=O)O)C(=O)O)NC(=O)[C@H](CO)NC(=O)[C@H](CC(=O)O)NC(=O)[C@H](CC(C)C)NC(=O)[C@](C)(Cc1ccccc1)NC(=O)[C@H](CCCCN)NC(=O)[C@H](CO)NC(=O)[C@@H](NC(=O)[C@H](CC(=O)O)NC(=O)[C@H](CO)NC(=O)[C@@H](NC(=O)[C@H](Cc1ccccc1)NC(=O)[C@@H](NC(=O)CNC(=O)[C@H](CCC(N)=O)NC(=O)C(C)(C)NC(=O)[C@@H](N)Cc1c[nH]cn1)[C@@H](C)O)[C@@H](C)O)C(C)C)C(C)C)C(=O)N[C@@H](CC(C)C)C(=O)NC(C)(C)C(=O)N[C@H](C(=O)O)[C@@H](C)O [Peptide 40] (H-H[Aib]QGTFTSDVSK[αMeF]LDSK([AEEA-AEEA-γGlu-C18 diacid])RAQDFVQWLL[Aib]T-OH; N-terminus assumed) | 29.9 | 8.2 | 123 |
| CC(C)C[C@H](NC(=O)[C@H](Cc1c[nH]c2ccccc12)NC(=O)[C@H](CCC(N)=O)NC(=O)[C@@H](NC(=O)[C@H](Cc1ccccc1)NC(=O)[C@H](CC(=O)O)NC(=O)[C@H](CCC(N)=O)NC(=O)[C@H](C)NC(=O)[C@H](CCCNC(=N)N)NC(=O)[C@H](CCCCNC(=O)COCCOCCNC(=O)COCCOCCNC(=O)CC[C@H](NC(=O)CCCCCCCCCCCCCCCCC(=O)O)C(=O)O)NC(=O)[C@H](CO)NC(=O)[C@H](CC(=O)O)NC(=O)[C@H](CC(C)C)NC(=O)[C@](C)(Cc1ccccc1)NC(=O)[C@H](CCCCN)NC(=O)[C@H](CO)NC(=O)[C@H](Cc1ccc(O)cc1)NC(=O)[C@H](CC(=O)O)NC(=O)[C@H](CO)NC(=O)[C@@H](NC(=O)[C@H](Cc1ccccc1)NC(=O)[C@@H](NC(=O)CNC(=O)[C@H](CCC(N)=O)NC(=O)C(C)(C)NC(=O)[C@@H](N)Cc1c[nH]cn1)[C@@H](C)O)[C@@H](C)O)C(C)C)C(=O)N[C@H](C(=O)NCCOCCOCCOCCOCCC(N)=O)C(C)C [Peptide 41] (H-H[Aib]QGTFTSDYSK[αMeF]LDSK([AEEA-AEEA-γGlu-C18 diacid])RAQDFVQWLV[PEG4]-NH2; N-terminus assumed) | 663 | 17.1 | 5740 |
| CC(C)C[C@H](NC(=O)C(C)(C)NC(=O)[C@H](CCC(N)=O)NC(=O)[C@@H](NC(=O)[C@H](Cc1ccccc1)NC(=O)[C@H](CC(=O)O)NC(=O)[C@H](CCC(N)=O)NC(=O)[C@H](C)NC(=O)[C@H](CCCNC(=N)N)NC(=O)[C@H](CCCCNC(=O)COCCOCCNC(=O)COCCOCCNC(=O)CC[C@H](NC(=O)CCCCCCCCCCCCCCCCC(=O)O)C(=O)O)NC(=O)[C@H](CO)NC(=O)[C@H](CC(=O)O)NC(=O)[C@H](CC(C)C)NC(=O)[C@](C)(Cc1ccccc1)NC(=O)[C@H](CCCCN)NC(=O)[C@H](CO)NC(=O)[C@@H](NC(=O)[C@H](CC(=O)O)NC(=O)[C@H](CO)NC(=O)[C@@H](NC(=O)[C@H](Cc1ccccc1)NC(=O)[C@@H](NC(=O)CNC(=O)[C@H](CCC(N)=O)NC(=O)C(C)(C)NC(=O)[C@@H](N)Cc1c[nH]cn1)[C@@H](C)O)[C@@H](C)O)C(C)C)C(C)C)C(=O)N[C@H](C(=O)N[C@@H](C)C(=O)N[C@H](C(=O)O)[C@@H](C)O)C(C)C [Peptide 42] (H-H[Aib]QGTFTSDVSK[αMeF]LDSK([AEEA-AEEA-γGlu-C18 diacid])RAQDFVQ[Aib]LVAT-OH; N-terminus assumed) | 665 | 24.4 | 8190 |
| CCCCCCCCCCCCCCCCCC(=O)N[C@@H](CCC(=O)N[C@@H](CCC(=O)NCCOCCOCCC(=O)NCCOCCOCCC(=O)NCCCC[C@H](NC(=O)[C@H](CO)NC(=O)[C@H](CC(=O)O)NC(=O)[C@H](CC(C)C)NC(=O)[C@@H](NC(=O)[C@H](CCCCN)NC(=O)[C@H](CO)NC(=O)[C@@H](NC(=O)[C@H](CC(=O)O)NC(=O)[C@H](CO)NC(=O)[C@@H](NC(=O)[C@](C)(Cc1ccccc1)NC(=O)[C@H](CO)NC(=O)CNC(=O)[C@H](CCC(N)=O)NC(=O)[C@H](CO)NC(=O)[C@@H](N)Cc1c[nH]cn1)[C@@H](C)O)C(C)C)C(c1ccccc1)c1ccccc1)C(=O)N[C@@H](C)C(=O)N[C@@H](C)C(=O)N[C@@H](CCC(N)=O)C(=O)N[C@@H](CC(=O)O)C(=O)N[C@@](C)(Cc1ccccc1)C(=O)N[C@H](C(=O)N[C@@H](CCC(N)=O)C(=O)NC(C)(C)C(=O)N[C@H](C(=O)N[C@@H](C)C(=O)N[C@@H](CC(N)=O)C(N)=O)[C@@H](C)CC)C(C)C)C(=O)O)C(=O)O [Peptide 54] (H-HSQGS[αMeF]TSDVSK[Dip]LDSK([PEG2-PEG2-γGlu-γGlu-Stearoyl])AAQD[αMeF]VQ[Aib]IAN-NH2; N-terminus assumed) | 2.81 | 1.8 | 2.59 |
| CCCCCCCCCCCCCCCCCC(=O)N[C@@H](CCC(=O)N[C@@H](CCC(=O)NCCOCCOCCC(=O)NCCOCCOCCC(=O)NCCCC[C@H](NC(=O)[C@H](CO)NC(=O)[C@H](CC(=O)O)NC(=O)[C@H](CC(C)C)NC(=O)[C@@H](NC(=O)[C@H](CCCCN)NC(=O)[C@H](CO)NC(=O)[C@@H](NC(=O)[C@H](CC(=O)O)NC(=O)[C@H](CO)NC(=O)[C@@H](NC(=O)[C@](C)(Cc1ccccc1)NC(=O)[C@H](CO)NC(=O)CNC(=O)[C@H](CCC(N)=O)NC(=O)[C@H](CO)NC(=O)[C@@H](N)Cc1c[nH]cn1)[C@@H](C)O)C(C)C)C(c1ccccc1)c1ccccc1)C(=O)N[C@@H](C)C(=O)N[C@@H](C)C(=O)N[C@@H](CCC(N)=O)C(=O)N[C@@H](CC(=O)O)C(=O)N[C@@](C)(Cc1ccccc1)C(=O)N[C@H](C(=O)N[C@@H](CCC(N)=O)C(=O)N[C@H](C(=O)N[C@@H](CC(C)C)C(=O)N[C@@H](CCC(=O)O)C(=O)N[C@@H](C)C(N)=O)C(c1ccccc1)c1ccccc1)C(C)C)C(=O)O)C(=O)O [Peptide 55] (H-HSQGS[αMeF]TSDVSK[Dip]LDSK([PEG2-PEG2-γGlu-γGlu-Stearoyl])AAQD[αMeF]VQ[Dip]LEA-NH2; N-terminus assumed) | 18.8 | 2.0 | 19.1 |
| CCCCCCCCCCCCCCCCCC(=O)N[C@@H](CCC(=O)N[C@@H](CCC(=O)NCCOCCOCCOCCOCCC(=O)NCCCC[C@H](NC(=O)[C@H](CO)NC(=O)[C@H](CC(=O)O)NC(=O)[C@H](CC(C)C)NC(=O)[C@@H](NC(=O)[C@H](CCCCN)NC(=O)[C@H](CO)NC(=O)[C@@H](NC(=O)[C@H](CC(=O)O)NC(=O)[C@H](CO)NC(=O)[C@@H](NC(=O)[C@](C)(Cc1ccccc1)NC(=O)[C@H](CO)NC(=O)CNC(=O)[C@H](CCC(N)=O)NC(=O)[C@H](CO)NC(=O)[C@@H](N)Cc1c[nH]cn1)[C@@H](C)O)C(C)C)C(c1ccccc1)c1ccccc1)C(=O)N[C@@H](C)C(=O)N[C@@H](C)C(=O)N[C@@H](CCC(N)=O)C(=O)N[C@@H](CC(=O)O)C(=O)N[C@@](C)(Cc1ccccc1)C(=O)N[C@H](C(=O)N[C@@H](CCC(=O)O)C(=O)NC(C)(C)C(=O)N[C@H](C(=O)N[C@H](C(=O)N[C@@H](CC(N)=O)C(=O)N[C@H](C(N)=O)[C@@H](C)O)[C@@H](C)CC)[C@@H](C)CC)C(C)C)C(=O)O)C(=O)O [Peptide 56] (H-HSQGS[αMeF]TSDVSK[Dip]LDSK([PEG4-γGlu-γGlu-Stearoyl])AAQD[αMeF]VE[Aib]IINT-NH2; N-terminus assumed) | 4.86 | 4.4 | 10.9 |
| CCCCCCCCCCCCCCCCCC(=O)N[C@@H](CCC(=O)N[C@@H](CCC(=O)NCCOCCOCCOCCOCCOCCOCCOCCOCCC(=O)NCCCC[C@H](NC(=O)[C@H](CO)NC(=O)[C@H](CC(=O)O)NC(=O)[C@H](CC(C)C)NC(=O)[C@@H](NC(=O)[C@H](CCCCN)NC(=O)[C@H](CO)NC(=O)[C@@H](NC(=O)[C@H](CC(=O)O)NC(=O)[C@H](CO)NC(=O)[C@@H](NC(=O)[C@](C)(Cc1ccccc1)NC(=O)[C@H](CO)NC(=O)CNC(=O)[C@H](CCC(N)=O)NC(=O)[C@H](CO)NC(=O)[C@@H](N)Cc1c[nH]cn1)[C@@H](C)O)C(C)C)C(c1ccccc1)c1ccccc1)C(=O)N[C@@H](C)C(=O)N[C@@H](C)C(=O)N[C@@H](CCC(N)=O)C(=O)N[C@@H](CC(=O)O)C(=O)N[C@@](C)(Cc1ccccc1)C(=O)N[C@H](C(=O)N[C@@H](CCC(=O)O)C(=O)NC(C)(C)C(=O)N[C@H](C(=O)N[C@H](C(=O)N[C@@H](CC(N)=O)C(=O)N[C@H](C(N)=O)[C@@H](C)O)[C@@H](C)CC)[C@@H](C)CC)C(C)C)C(=O)O)C(=O)O [Peptide 57] (H-HSQGS[αMeF]TSDVSK[Dip]LDSK([PEG8-γGlu-γGlu-Stearoyl])AAQD[αMeF]VE[Aib]IINT-NH2; N-terminus assumed) | 9.09 | 3.7 | 16.9 |

— US20250353891A1 (MEDIMMUNE LIMITED, priority 2022, published 2025)
